According to patent US20030125287A1, “Antisense oligonucleotides and methods to induce tumor cell death” (Hybridon, Inc., priority 2001, published 2003):
“Also recorded” adds a separate entry of the source. Oligonucleotides are written 5' to 3', each unit as a sugar letter and its base; * is a phosphorothioate linkage, no mark a phosphodiester; rarer units and linkages stand in square brackets, end groups in braces. Plain capitals give the bases only. d = 2'-deoxy (DNA)

Columns and labels:
Assay type in all cases: cell-based, human
[1] = test system: apoptosis-inducing factor (AIF); assay: AIF immunostaining and DAPI double-labeling of MSN cells; conditions: for AIF localization: 600 nM (FIGS. 9H-9K)
Procedure: To examine whether down-regulation of survivin induces AIF nuclear translocation, AIF and DAPI double-labeling was performed on MSN cells treated with lipofectin (FIG. 9H), or 600 nM survivin antisense oligonucleotide 904 (FIG. 9I), mismatch oligonucleotide 1132 (FIG. 9J), or survivin antisense oligonucleotide 906 (FIG. 9K).
Lipofectin, mismatch oligonucleotide 1132 or survivin antisense oligonucleotide-treated MSN cells were fixed and permeabilized as described for PI staining, and blocked for 1 h at room temperature with 10% normal goat serum in 5% non-fat, dry milk in 1×TBS. […] Omission of the primary antibody confirmed that the immunostaining was specific. Cells were counterstained with the DNA-specific dye DAPI (1:1000 of a 1 mg/ml stock; 15 min at room temperature). Cells were examined with an Olympus 1×70 inverted microscope. Fluorescent images were collected using a 12-bit Photometrics cooled CCD camera. For each treatment, 15 random, 40×objective fields consisting of about 600 cells were examined. TRITC (red) and DAPI (blue) stained cells were scored as having AIF staining either in the mitochondria or the nucleus relative to the total number examined. In parallel, the DAPI stained nuclei were also scored as normal, condensed, or abnormal nuclei. Experiments were performed in duplicate.

[2] = test system: MSN cells; assay: Propidium iodide staining, nuclear morphology of MSN cells; conditions: for nuclear morphology by PI staining: 600 nM (FIG. 9); for percentage of cells with abnormal nuclear morphology by PI staining: 600 nM alone (FIG. 9G)
Procedure: Propidium iodide (PI) staining and phase microscopy were used to assess the nuclear morphology of the survivin antisense oligonucleotide-treated MSN cells. MSN cells were treated with lipofectin (FIG. 9A), or 600 nM mismatch oligonucleotide 1132 (FIG. 9B) or survivin antisense oligonucleotide 904 (FIGS. 9C and 9E) or 906 (FIG. 9D), and stained with PI. To assess the effect on nuclear morphology of co-administration of survivin antisense oligonucleotide and the caspases inhibitor zVAD-fmk, MSN cells were treated with 600 nM survivin antisense oligonucleotide 904, 906, or mismatch oligonucleotide 1132 alone, or in the presence of 20 μM zVAD-fmk, and stained with PI (FIG. 9G).
Survivin antisense oligonucleotide-treated cells were fixed with 4% paraformaldehyde for 30 min at room temperature, washed with 1×TBS, permeabilized with 0.1% Triton X-100 for 30 min and treated with 10 μg/ml DNasc free RNase A (Sigma) for 60 min. Nuclei were stained with 200 μg /ml PI for 30 min at 4° C. and washed twice with 1×TBS. Nuclear morphology was assessed on an inverted Olympus 1×70 fluorescence microscope equipped with phase and epifluorescence optics. For each treatment about 600 nuclei were scored as normal, condensed (apoptotic), or abnormal (macronuclei, multilobed) on 15 random, 40×objective fields in duplicate. Quantification results are mean±SEM obtained from two independent experiments performed in duplicate.

[3] = test system: survivin; assay: Western blot of survivin protein in antisense oligonucleotide-treated MSN cells; conditions: for effect on survivin protein levels / percentage of survivin protein over β-tubulin relative to lipofectin: lipofectin; for effect on survivin protein levels: 48 hours; for decrease in survivin protein levels relative to lipofectin-treated control, normalized to β-tubulin / percentage of survivin protein over β-tubulin relative to lipofectin: 400 nM, 48 hours (FIG. 3A)
Procedure: Six survivin (900-906) antisense oligonucleotides were administered at 400 nM to MSN cells in the presence of lipofectin for 48 hours. Each lane has 100 μg of protein. The blots were cut at 32.9 kD and the bottom incubated with the survivin polyclonal antibody (1:500), while the top was incubated with β-tubulin.
Since survivin antisense oligonucleotide 903 decreased survivin protein levels by 76%, the dose dependency of 903 on survivin protein levels was further studied. As expected, mismatched oligonucleotides had no effect on the relative abundance of survivin. […] In the presence of lipofectin, survivin antisense oligonucleotide 903 was administered to MSN cells for 48 hours at 50 nM to 200 nM. Total protein (100 μg) was loaded/lane.
Survivin antisense oligonucleotide 904 decreased survivin protein levels by 46% and 60% while survivin levels were unchanged in cells incubated with the mismatched oligonucleotide 1132. MSN cells were treated with lipofectin, survivin antisense oligonucleotide 904 or 908 at 400 nM and 600 nM, or mismatched oligonucleotide 1132 at 400 nM concentrations. Total protein (100 μg) was separated by SDS polyacrylamide gel electrophoresis and transferred to a nitrocellulose support. The blots were cut at 32.9 kD and the bottom blots incubated with the survivin polyclonal antibody (1:500), while the top blots were incubated with tubulin.
The antisense oligonucleotides were synthesized on solid support with an automated DNA synthesizer using β-cyanoethylphosphoramidite chemistry. In order to prevent rapid degradation of the antisense oligonucleotides by cellular nucleases, oxidation was carried out with Becauge sulfurizing agent to obtain phosphorothioate backbone modified oligonucleotides. After their synthesis, the oligonucleotides were released from the solid support, deprotected, purified by reverse-phase HPLC, desalted, filtered and lyophilized. The purity and sequence integrity of oligonucleotides was ascertained by capillary gel electrophoresis and MALDI-TOF mass spectral analysis and the concentrations measured at […]. Cells were grown in 100 mm dishes and oligonucleotide treatment was performed on subconfluent cultures in the presence of Lipofectin (GIBCO) according to the manufacturer. Forty-eight hours following treatment, total protein homogenates were isolated.
Ten micrograms of the fusion protein was incubated with the survivin antibody (1:500) at 4° C. for 2 hours to overnight prior to immunoblotting. […] Blots were cut at 32.9 kD, and the bottom part of the blots were incubated with the survivin antibody overnight at 4° C. and visualized by enhanced chemiluminescence (Enhanced Chemiluminescence, Amersham, Arlington Heights, Ill.) as previously described (Sharma et al. Cell. Motil. Cytoskeleton 27:234-247).

Row | Substance | percentage of cells with normal-appearing nuclei by DAPI staining ([1]; 600 nM) | percentage of cells with nuclear localization / translocation of AIF ([1]; 600 nM) | AIF localization [1] | nuclear morphology by PI staining [2] | effect on survivin protein levels [3] | percentage of cells with abnormal nuclear morphology by PI staining [2] | decrease in survivin protein levels relative to lipofectin-treated control, normalized to β-tubulin [3] | percentage of survivin protein over β-tubulin relative to lipofectin [3] | decrease in survivin protein levels ([3]; 400 nM (FIG. 4C)) | decrease in survivin protein levels ([3]; 600 nM (FIG. 4C))
1 | d(GCACCTAGTCTCCCTGCACC) (DNA, all phosphorothioate, methylation of C not given here) [Oligo 1132, mismatched phosphorothioate control oligonucleotide, not complementary to survivin mRNA, reference compound] | 95% | 4-8% | robust AIF staining in the cytosol | normal nuclear morphology | had no effect; also recorded: did not alter survivin protein levels |  |  |  |  | 
2 | d(GCTTCCCAGTCACATCCTGT) (antisense dG*dC*dT*dT*dC*dC*dC*dA*dG*dT*dC*dA*dC*dA*dT*dC*dC*dT*dG*dT) [Oligo 906, 20-mer phosphorothioate survivin antisense oligonucleotide, complementary to survivin mRNA 11897-11916] |  |  | nuclear translocation of AIF | abnormal multiple multilobed nuclei |  | 31% | 73% | 26.9% |  | 
3 | d(TCTTGGCTCTTTCTCTGTCC) (antisense dT*dC*dT*dT*dG*dG*dC*dT*dC*dT*dT*dT*dC*dT*dC*dT*dG*dT*dC*dC) [Oligo 904, 20-mer phosphorothioate survivin antisense oligonucleotide, complementary to survivin mRNA 5248-5267] |  |  | nuclear translocation of AIF | abnormal multiple multilobed nuclei | effective in reducing survivin protein levels in a concentration-dependent manner | 27% | 64% | 35.7% | 46% | 60%
